Assay [1] is described as follows: Writhing Assay (PBQ-induced writhing, analgesia). Format: in vivo, Charles River male albino mice. Conditions: Mus musculus, po, intragastric; for responders at 30 mg/kg: 30 mg per kilogram, 25 minutes before PBQ i.p., writhes ≤ one-half median of saline control, read-out: WRITHING ASSAY, number of mice out of 9 or 10 in which test compound produced analgesia (converted). On the procedure:
The phrase "ED50 dose" as used herein means that dose of a compound or drug which produced a biological effect, such as producing analgesia, in 50% of the animals to which the compound or drug was administered. The Writhing Assay is one of the most widely-used experimental procedures for measuring the analgesic activity of different narcotic and nonnarcotic analgesic agents, and involves the continuous, chemically-induced pain of visceral origin to an animal, such as a mouse or rat. [Gyires et al., Arch. int. Pharmacodyn, 267, 131-140 (1984); […] al., Fed. Proc., 15, 494 (1956); Koster et al., Fed. Proc., 18, 412 (1959); and Witken et al., J. Pharmacol. exp. Ther., 133, 400-408 (1961).] Chemicals which may be used to induce this pain include phenylbenzoquinone (PBQ) and acetic acid. As a result of the chemical irritation to the animal, a characteristic stretching and writhing of the animal (dorsiflexion of the animal's back, extension of its hindlimbs and the strong contraction of its abdominal musculature) will generally occur. […] Drugs which reduce the number of writhes of the animal appear to restore the normal nociceptive threshold of the animal. […] Charles River male albino mice, weighing 20 to 30 grams were used in this assay. Twenty-five minutes after intragastric administration to nine or ten mice of 30 mg per kilogram of body weight of a compound of the present invention ("test compound"), […] per 10 g of body weight of a 0.025% w/v solution of PBQ was injected intraperitoneally into each mouse. Ten mice which were given saline in place of a test compound of the invention were used as a control group. Five minutes later, each mouse was individually placed into a glass beaker for observation, and the number of writhes occurring during the following ten-minute period was counted. A test compound was considered to have produced analgesia in a mouse if, in accordance with the conditions set forth above, and under the test criteria employed for this assay, after the administration of 30 mg per kilogram of body weight of a compound of the present invention to the mouse, the number of writhes elicited by a mouse injected with PBQ was equal to, or less than, one-half the median number of writhes recorded for the saline-treated control group of mice that day, as described by Taber in "Predictive Value of Analgesic Assays in Mice and Rats," Advances in Biochemical Psychopharmacology, 8, 191 (1974). The results for the particular compounds of the present invention analyzed in this assay, and discussed in the examples identified below which correspond thereto, are presented in Table 1 hereinbelow as fractions under the heading "WRITHING ASSAY." The fractions indicate the number of mice out of nine or ten in which a test compound produced analgesia. The standard initial screening dose of a test compound employed in this assay was 30 milligrams per […] of body weight. If this initial screening dose of the test compound produced analgesia in seven of nine or ten mice, then the effect of additional doses of the test compound on the writhing response was evaluated, and then the ED50 dose was generally calculated. (The slopes of the dose-response curves for all test compounds analyzed were compared as described by Tallarida and Murray, Manual of Pharmacologic Calculations, Page 11 (Springer Verlag, New York, 1981)). All ED50 doses calculated are also presented below as whole numbers in Table 1, under the heading "WRITHING ASSAY."
On the technique in general: Writhing tests count abdominal constrictions after an irritant is injected.

In assay [2] the target is T1, prostaglandin E2-induced contractions of segments of guinea pig ileum (Cavia porcellus, UniProt A0A286XHJ6).
T1 construct: Segments of ileum about 2 cm long were then cut and mounted in a 10-mL tissue bath; from tissue; host or cells: guinea pig ileum segments
T1 sequence (A0A286XHJ6 1-405): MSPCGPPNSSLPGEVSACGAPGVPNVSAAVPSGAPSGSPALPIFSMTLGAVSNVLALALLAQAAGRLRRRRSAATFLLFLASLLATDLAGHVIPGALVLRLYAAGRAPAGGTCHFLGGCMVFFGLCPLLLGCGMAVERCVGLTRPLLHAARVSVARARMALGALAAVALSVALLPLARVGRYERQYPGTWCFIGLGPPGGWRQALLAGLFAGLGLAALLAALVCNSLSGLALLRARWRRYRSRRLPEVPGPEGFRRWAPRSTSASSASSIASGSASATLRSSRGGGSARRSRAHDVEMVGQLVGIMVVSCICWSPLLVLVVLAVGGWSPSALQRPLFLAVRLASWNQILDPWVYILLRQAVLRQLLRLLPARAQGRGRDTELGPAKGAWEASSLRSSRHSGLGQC
Put plainly: Prostaglandin (PGE) Antagonism Assay (guinea pig ileum). In kind it is cell-based, male albino guinea pigs. As to conditions: estimated from 3 micromolar (dose ratio ≥2) or Schild plot (dose ratio ≥5); 37° C.; read-out: PGE ANTAGONISM IN GUINEA PIG ILEUM (pA2) (converted). The source says: The phrase "EC50 concentration" as used herein means that concentration of a compound or drug which is necessary to elicit a 50% maximal biological response and, thus, which is necessary to elicit a 50% reduction in the contractions of guinea pig ileum segments in a prostaglandin antagonism assay. (b) Prostaglandin (PGE) Antagonism Assay In order to determine the effectiveness of several of the compounds of the present invention ("test compounds") as prostaglandin E2 antagonists,a prostaglandin antagonism assay was conducted, as described below, to determine the ability of these compounds to inhibit prostaglandin E2 -induced contractions of segments of guinea pig ileum. […] Male albino guinea pigs weighing 200 to 500 grams were sacrificed by cervical dislocation. The ilea were then quickly removed from the guinea pigs and placed in a modified Tyrode solution, a solution which is known to those skilled in the art, containing one-half of the usual amount of magnesium ions. Segments of ileum about 2 cm long were then cut and mounted in a 10-mL tissue bath containing the modified Tyrode solution. The solution was maintained at 37° C. and aerated with a gaseous mixture of 95% oxygen and 5% carbon dioxide. Data for a control prostaglandin E2 dose response curve plotting concentration of prostaglandin E2 versus the intensity of contractions, detected isotonically, was then obtained by experimentally adjusting the dose of the prostaglandin E2 being injected into the tissue bath, in a manner known by those of skill in the art. Solutions or suspensions containing an initial concentration (3 micromolar) of a test compound in modified Tyrode solution ("test solutions/suspensions") were then separately substituted for the control bath solution. Each test solution/suspension was then kept in constant contact with the ileum tissue, except for brief periods to drain the bath in preparation for rinsing with fresh test solution/suspension. A second prostaglandin E2 dose response curve was then generated for prostaglandin E2 in the presence of a test compound. A dose ratio of EC50 doses was then calculated from the results of each test in a manner known by those of skill in the art. A test compound was determined to be "active" if the initial concentration used yielded at least a two-fold shift (dose ratio greater than or equal to 2) in the dose response curve for prostaglandin E2. […] The compounds of the present invention which were tested in this assay, and for which results are presented in Table 1, correspond to the particular examples specified in Table 1.

Counter-ions that a name gives are not always drawn.

One may read the ED50 as the dose at which the effect has come halfway, by size or by number of responders. High values mean weaker potency, low ones greater potency.

On to `O=C(Nc1ccncc1)c1csc(N2Cc3ccccc3Oc3ccc(Cl)cc32)n1` [Example 28, 2-(8-Chlorodibenz[b,f][1,4]oxazepin-10(11H)-yl)-N-4-pyridinyl-4-thiazolecarboxamide, hydrochloride], for which, in assay [1], the responders at 30 mg/kg is 100%. Also, the Kb in assay [2] is 3160 nM.
Take `O=C(Nc1cccnc1)c1csc(N2Cc3ccccc3Oc3ccc(Cl)cc32)n1` [Example 29, 2-(8-Chlorodibenz[b,f][1,4]oxazepin-10(11H)-yl)-N-3-pyridinyl-4-thiazolecarboxamide, hydrochloride]: the responders at 30 mg/kg in assay [1] is 60%. Moreover, the Kb in assay [2] was 1000 nM.
On to `O=C(CCc1ccncc1)c1csc(N2Cc3ccccc3Oc3ccc(Cl)cc32)n1` [Example 32, 1-[2-(8-Chlorodibenz[b,f][1,4]oxazepin-10(11H)-yl)-4-thiazolyl]-3-(4-pyridinyl)-1-propanone, monohydrochloride], for which the responders at 30 mg/kg in assay [1] was 60%. In addition, the Kb in assay [2] is 631 nM.
In assay [1] (mice, PBQ), `OC(/C=C\c1ccncc1)c1csc(N2Cc3ccccc3Oc3ccc(Cl)cc32)n1` (centres unmarked) [Example 34A, 2-(8-Chlorodibenz[b,f][1,4]oxazepin-10(11H)-yl)-a-[2Z(4-pyridinyl)ethenyl]-4-thiazolemethanol, hydrochloride] gave an ED50 of 9.7 mg/kg. Further, the Kb in assay [2] is 794 nM.
In the case of `OC(CCc1ccncc1)c1csc(N2Cc3ccccc3Oc3ccc(Cl)cc32)n1` (stereo not drawn) [Example 34B, α-[2-(8-Chlorodibenz[b,f][1,4]oxazepin-10(11H)-yl)-4-thiazolyl]-4-pyridinepropanol, dihydrochloride], the responders at 30 mg/kg in assay [1] was 50%. Besides, the Kb in assay [2] was 1580 nM.
Consider `O=C(NCc1csc(N2Cc3ccccc3Oc3ccc(Cl)cc32)n1)c1ccncc1` [Example 36, N-[[2-(8-Chlorodibenz[b,f][1,4]oxazepin-10(11H)-yl)-4-thiazolyl]methyl]-4-pyridinecarboxamide, hydrochloride], for which the responders at 30 mg/kg in assay [1] was 60%. Further, the Kb in assay [2] was 631 nM.
The like results for `O=C(NCc1cccnc1)c1csc(N2Cc3ccccc3Oc3ccc(Cl)cc32)n1` [Example 37, 2-(8-Chlorodibenz[b,f][1,4]oxazepin-10(11H)-yl)-N-(3-pyridinylmethyl)-4-thiazolecarboxamide, hydrochloride] were, in that order, 10% and 1000 nM.

The values above are taken from patent publication US5395932A, “2,3-,4-,5-,6-,7-,8-,9- and/or 10-substituted dibenzoxazepine compounds, pharmaceutical compositions and methods of use” (G. D. Searle & Co., priority 1993, dated 1995).
